Results published in patent US9526713B2, “Use of dencichine in preparation of drug for treating thrombocytopenia” (KUNMING SHENGHUO PHARMACEUTICAL (GROUP) CO., LTD., priority 2013, dated 2016).
Read-outs that look alike come from different tables or passages of the source.

Key:
female mouse = settings: cited from earlier work
[1] = Organ index of rats suffering thrombopenia induced by carboplatin; type: in vivo, Wistar rats
Method: (§1) 81 rats are prepared and randomly divided into eight groups: • blank control group, • high-dose group A (4 mg/kg, intraperitoneal injection, non modeling), • model group (40 mg/kg, tail vein injection), • interleukin-11 group (260 μg/kg, subcutaneous injection), • high dose group B (4 mg/kg, intraperitoneal injection, modeling), • high dose group (4 mg/kg, intraperitoneal injection), • middle dose group (1 mg/kg, intraperitoneal injection), and • low dose group (0.25 mg/kg, intraperitoneal injection),
(§2) Thereafter, all animals, except for those of blank group and high-dose group A, are individually injected with carboplatin (40 mg/kg) for modeling, and followed by successive administration for 15 days. During these 15 days, the rats of high-dose group A and high dose group B are stopped from administration, and taken blood from the tail on 5th day, 10th day and 15th day after the modeling respectively for detecting hematological indices. After 15th day of modeling, carboplatin (40 mg/kg) is injected again for a second modeling, and all the groups take successive administration according to the foregoing method, once a day for successive 10 days. Before each hematological indices detection, animals are weighed respectively. Taking the tails' blood of rats on 5th day after the second injection of carboplatin for detecting hematological indices, and taking the tails' blood of rats on 10th day after the second injection of carboplatin for detecting the indices of hematology, reticulocytes and coagulation; and weighing animals and killing them; and weighing liver, thymus, spleen and adrenal gland taken from the dead rats, and calculating out viscera indices; further taking out marrow for doing pathological examination.

ITP model mice = type: in vivo, BALB/C mice
Method: Health BALB/C mice (body weight 18˜22 g) are randomly divided into six groups with 12 mice for each group:
Except the normal group, the mice of the remain five groups are injected with anti-mouse platelet serum (APS) of the guinea pig with a dose of 100 μl/20 g body weight, via intraperitoneal injection, on the 1st, 3rd, 5th, 7th, 9th, 11th and 13th day of the experiment.
The mice of each group are given intragastric administration from the first day. The mice of the dencichine high dose, middle-dose and low dose groups are given intragastric administration at […] respectively. The mice of the prednisone acetate group are given intragastric administration of suspension of prednisone acetate at 5 mg/(kg·d). The mice of other groups are given intragastric administration of same volumetric of normal saline at 0.2 ml/20 g body weight. Intragastric administration for once each day, and continuous administration for 14 days.
20 μl Blood was collected from orbital veins of each mouse of each group before Modeling and on 14th test day respectively, and dropped into anticoagulative tubes, then platelet count was detected by an automated blood analyzers.

rabbits = experiment: Influence of Dencichine for injection on the platelet count of rabbits (single-dose injection); type: in vivo, rabbit
thrombocyte aggregation = experiment: Thrombocyte aggregation rate of rats injected with carboplatin; type: in vivo, rat
Excerpt: So far, it has been reported that a little dencichine can be used as hemostatic drug in prior art, as disclosed in the patent application with publication No. CN1292376A that administrating a little dencichine can achieve hemostasis. However, it has never been reported that dencichine is able to treat Thrombocytopenia.

[2] = system: rats suffering thrombopenia induced by carboplatin; experiment: Platelet count of rats suffering thrombopenia induced by multiple injections of carboplatin; type: in vivo, Wistar rats; settings: for increase of platelet count compared with the model group: first injection of carboplatin for 10 days
Method: as §1
wherein, the Model group has 11 rats, and the other groups has 10 rats respectively. Before the experiment, the animals are asked to adapt the environment for 2 days, and then blood is taken from their tails for detecting hematological index.
After administration for 10 days, blood is taken from tails of rats from blank control group, high-dose group A, and positive drug group respectively for detecting hematological index.
as §2

[3] = high dose group A, 4 mg/kg i.p., non modeling
[4] = high dose group B, 4 mg/kg i.p., prophylactic, modeling
[5] = low dose group, 0.25 mg/kg i.p.
[6] = middle dose group, 1 mg/kg i.p.

N[C@@H](CNC(=O)C(=O)O)C(=O)O [Dencichine, β-N-oxalyl-L-α, β-diaminopropionic acid]
increase of the platelet count (female mouse; 1 mg in 0.5 ml Ringer-Locke solution, injected into abdominal cavity of a female mouse): 30% | effect on the hemostasis and increase of platelet count (female mouse; Zhao Guoqiang et al., 1984): significant effect | organ index, Adrenal gland [1, 3]: 0.03 ± 0.004 g/100 g body weight | organ index, Liver [1, 3]: 3.33 ± 0.22 g/100 g body weight | organ index, Spleen [1, 3]: 0.28 ± 0.05 g/100 g body weight | organ index, Thymus gland [1, 3]: 0.18 ± 0.08 g/100 g body weight | organ index, Adrenal gland [1, 4]: 0.03 ± 0.01 g/100 g body weight | organ index, Liver [1, 4]: 3.70 ± 0.31 g/100 g body weight | organ index, Spleen [1, 4]: 0.36 ± 0.10 g/100 g body weight | organ index, Thymus gland [1, 4]: 0.10 ± 0.03 g/100 g body weight | organ index, Adrenal gland ([1]; high dose group, 4 mg/kg i.p.): 0.03 ± 0.004 g/100 g body weight | organ index, Liver ([1]; high dose group, 4 mg/kg i.p.): 3.61 ± 0.46 g/100 g body weight | organ index, Spleen ([1]; high dose group, 4 mg/kg i.p.): 0.32 ± 0.11 g/100 g body weight | organ index, Thymus gland ([1]; high dose group, 4 mg/kg i.p.): 0.11 ± 0.02 g/100 g body weight | organ index, Adrenal gland [1, 5]: 0.03 ± 0.004 g/100 g body weight | organ index, Liver [1, 5]: 3.71 ± 0.21 g/100 g body weight | organ index, Spleen [1, 5]: 0.35 ± 0.06 g/100 g body weight | organ index, Thymus gland [1, 5]: 0.11 ± 0.02 g/100 g body weight | organ index, Adrenal gland [1, 6]: 0.03 ± 0.01 g/100 g body weight | organ index, Liver [1, 6]: 3.50 ± 0.52 g/100 g body weight | organ index, Spleen [1, 6]: 0.32 ± 0.10 g/100 g body weight | organ index, Thymus gland [1, 6]: 0.09 ± 0.04 g/100 g body weight | platelet count (ITP model mice; high dose 6 mg/kg intragastric, Before Modeling): 751.4 ± 114.3 ×10^9/L | platelet count (ITP model mice; high dose 6 mg/kg intragastric, Day 14): 542.1 ± 95.4 ×10^9/L | platelet count (ITP model mice; low dose 1.5 mg/kg intragastric, Before Modeling): 745.1 ± 139.6 ×10^9/L | platelet count (ITP model mice; low dose 1.5 mg/kg intragastric, Day 14): 428.2 ± 75.1 ×10^9/L | platelet count (ITP model mice; middle dose 3 mg/kg intragastric, Before Modeling): 749.2 ± 147.5 ×10^9/L | platelet count (ITP model mice; middle dose 3 mg/kg intragastric, Day 14): 484.8 ± 78.4 ×10^9/L | PLT (rabbits; 0.04 mg/kg, 0 min): 523.3 ± 78.5 ×10^9/L | PLT (rabbits; 0.04 mg/kg, 30 min): 451.0 ± 144.5 ×10^9/L | PLT (rabbits; 0.04 mg/kg, 60 min): 504.0 ± 87.8 ×10^9/L | PLT (rabbits; 0.20 mg/kg, 0 min): 574.0 ± 64.3 ×10^9/L | PLT (rabbits; 0.20 mg/kg, 30 min): 502.3 ± 60.8 ×10^9/L | PLT (rabbits; 0.20 mg/kg, 60 min): 518.2 ± 128.5 ×10^9/L | PLT (rabbits; 1.00 mg/kg, 0 min): 491.2 ± 163.1 ×10^9/L | PLT (rabbits; 1.00 mg/kg, 30 min): 526.5 ± 143.8 ×10^9/L | PLT (rabbits; 1.00 mg/kg, 60 min): 541.0 ± 121.6 ×10^9/L | change on the platelet count of rabbits (rabbits; single-dose injection, various doses): no obvious change | thrombocyte aggregation rate (thrombocyte aggregation): increasing thrombocyte aggregation rate | platelet count ([2]; high dose group A, 4 mg/kg i.p., non modeling, 5th day after first injection of carboplatin): 1113.8 ± 356.97 ×10^9/L | platelet count ([2]; high dose group A, 4 mg/kg i.p., non modeling, 5th day after second injection of carboplatin): 1163.3 ± 233.2 ×10^9/L | platelet count ([2]; high dose group A, 4 mg/kg i.p., non modeling, 10th day after first injection of carboplatin): 638.5 ± 207.9 ×10^9/L | platelet count ([2]; high dose group A, 4 mg/kg i.p., non modeling, 10th day after second injection of carboplatin): 873 ± 147.2 ×10^9/L | platelet count ([2]; high dose group A, 4 mg/kg i.p., non modeling, 15th day after first injection of carboplatin): 799.5 ± 349.8 ×10^9/L | platelet count ([2]; high dose group A, 4 mg/kg i.p., non modeling, before experiment): 625.5 ± 109.3 ×10^9/L | platelet count ([2]; high dose group A, 4 mg/kg i.p., non modeling, prophylactic administration for 10 days): 586.9 ± 139.67 ×10^9/L | platelet count ([2]; high dose group B, 4 mg/kg i.p., prophylactic, modeling, 5th day after first injection of carboplatin): 392.7 ± 116.9 ×10^9/L | platelet count ([2]; high dose group B, 4 mg/kg i.p., prophylactic, modeling, 5th day after second injection of carboplatin): 682.1 ± 266.4 ×10^9/L | platelet count ([2]; high dose group B, 4 mg/kg i.p., prophylactic, modeling, 10th day after first injection of carboplatin): 142.6 ± 78.6 ×10^9/L | platelet count ([2]; high dose group B, 4 mg/kg i.p., prophylactic, modeling, 10th day after second injection of carboplatin): 150.5 ± 99.9 ×10^9/L | platelet count ([2]; high dose group B, 4 mg/kg i.p., prophylactic, modeling, 15th day after first injection of carboplatin): 649.8 ± 234.1 ×10^9/L | platelet count ([2]; high dose group B, 4 mg/kg i.p., prophylactic, modeling, before experiment): 619.7 ± 106.81 ×10^9/L | platelet count ([2]; high dose group, 4 mg/kg i.p., 5th day after first injection of carboplatin): 302.2 ± 62.2 ×10^9/L | platelet count ([2]; high dose group, 4 mg/kg i.p., 5th day after second injection of carboplatin): 758.9 ± 231.2 ×10^9/L | platelet count ([2]; high dose group, 4 mg/kg i.p., 10th day after first injection of carboplatin): 186.9 ± 81.0 ×10^9/L | platelet count ([2]; high dose group, 4 mg/kg i.p., 10th day after second injection of carboplatin): 133.8 ± 126.3 ×10^9/L | platelet count ([2]; high dose group, 4 mg/kg i.p., 15th day after first injection of carboplatin): 1038.3 ± 237.1 ×10^9/L | platelet count ([2]; high dose group, 4 mg/kg i.p., before experiment): 625.7 ± 127.04 ×10^9/L | increase of platelet count compared with the model group ([2]; high-dose group (4 mg/kg i.p.)): 27.1% | platelet count ([2]; low dose group, 0.25 mg/kg i.p., 5th day after first injection of carboplatin): 331.4 ± 76.3 ×10^9/L | platelet count ([2]; low dose group, 0.25 mg/kg i.p., 5th day after second injection of carboplatin): 712.8 ± 324.7 ×10^9/L | platelet count ([2]; low dose group, 0.25 mg/kg i.p., 10th day after first injection of carboplatin): 157.8 ± 49.3 ×10^9/L | platelet count ([2]; low dose group, 0.25 mg/kg i.p., 10th day after second injection of carboplatin): 133 ± 83.661 ×10^9/L | platelet count ([2]; low dose group, 0.25 mg/kg i.p., 15th day after first injection of carboplatin): 956.8 ± 266.5 ×10^9/L | platelet count ([2]; low dose group, 0.25 mg/kg i.p., before experiment): 611.5 ± 90.19 ×10^9/L | platelet count ([2]; middle dose group, 1 mg/kg i.p., 5th day after first injection of carboplatin): 359 ± 102.4 ×10^9/L | platelet count ([2]; middle dose group, 1 mg/kg i.p., 5th day after second injection of carboplatin): 620.2 ± 226.1 ×10^9/L | platelet count ([2]; middle dose group, 1 mg/kg i.p., 10th day after first injection of carboplatin): 197.7 ± 78.8 ×10^9/L | platelet count ([2]; middle dose group, 1 mg/kg i.p., 10th day after second injection of carboplatin): 70.386 ± 36.845 ×10^9/L | platelet count ([2]; middle dose group, 1 mg/kg i.p., 15th day after first injection of carboplatin): 1043.4 ± 288.1 ×10^9/L | platelet count ([2]; middle dose group, 1 mg/kg i.p., before experiment): 623 ± 98 ×10^9/L | increase of platelet count compared with the model group ([2]; middle-dose group (1 mg/kg i.p.)): 34.4%
